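A five-concentration, 48-hour dose response in 96-well plates underlies each endpoint, interpolated linearly between surrounding concentrations. Definition used: TGI = concentration required for complete inhibition of growth.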
Tests used:
Assay in all cases: NCI anticancer screen, dose series, 48 h
786-0 renal = system: 786-0 renal
A498 renal = system: A498 renal
A549 NSCLC = system: A549 NSCLC
ACHN renal = system: ACHN renal
BT-549 breast = system: BT-549 breast
CAKI-1 renal = system: CAKI-1 renal
CCRF-CEM leukemia = system: CCRF-CEM leukemia
COLO 205 colon = system: COLO 205 colon
DU-145 prostate = system: DU-145 prostate
EKVX NSCLC = system: EKVX NSCLC
HCT-116 colon = system: HCT-116 colon
HCT-15 colon = system: HCT-15 colon
HL-60(TB) leukemia = system: HL-60(TB) leukemia
HOP-62 NSCLC = system: HOP-62 NSCLC
HS 578T breast = system: HS 578T breast
HT29 colon = system: HT29 colon
IGROV1 ovarian = system: IGROV1 ovarian
K-562 leukemia = system: K-562 leukemia
KM12 colon = system: KM12 colon
LOX IMVI melanoma = system: LOX IMVI melanoma
M14 melanoma = system: M14 melanoma
MALME-3M melanoma = system: MALME-3M melanoma
MCF7 breast = system: MCF7 breast
MDA-MB-231 breast = system: MDA-MB-231 breast
MDA-MB-435 = system: MDA-MB-435
MDA-N = system: MDA-N
MOLT-4 leukemia = system: MOLT-4 leukemia
NCI-H226 lung = system: NCI-H226 lung
NCI-H23 lung = system: NCI-H23 lung
NCI-H460 lung = system: NCI-H460 lung
NCI-H522 lung = system: NCI-H522 lung
NCI/ADR-RES ovarian = system: NCI/ADR-RES ovarian
OVCAR-3 ovarian = system: OVCAR-3 ovarian
OVCAR-4 ovarian = system: OVCAR-4 ovarian
OVCAR-5 ovarian = system: OVCAR-5 ovarian
OVCAR-8 ovarian = system: OVCAR-8 ovarian
PC-3 prostate = system: PC-3 prostate
RPMI-8226 leukemia = system: RPMI-8226 leukemia
RXF 393 renal = system: RXF 393 renal
SF-268 CNS = system: SF-268 CNS
SF-295 CNS = system: SF-295 CNS
SF-539 CNS = system: SF-539 CNS
SK-MEL-2 melanoma = system: SK-MEL-2 melanoma
SK-MEL-28 melanoma = system: SK-MEL-28 melanoma
SK-MEL-5 melanoma = system: SK-MEL-5 melanoma
SK-OV-3 ovarian = system: SK-OV-3 ovarian
SN12C renal = system: SN12C renal
SNB-19 CNS = system: SNB-19 CNS
SNB-75 CNS = system: SNB-75 CNS
SW-620 colon = system: SW-620 colon
T-47D breast = system: T-47D breast
TK-10 renal = system: TK-10 renal
U251 CNS = system: U251 CNS
UACC-257 melanoma = system: UACC-257 melanoma
UACC-62 melanoma = system: UACC-62 melanoma
UO-31 renal = system: UO-31 renal
HCC-2998 colon = system: HCC-2998 colon
HOP-92 NSCLC = system: HOP-92 NSCLC

`Cc1ccc(N(Cc2ccccc2)Cc2ccccc2)cc1` was tested, and the TGI (786-0 renal) was over 100 µM, the TGI (A498 renal) was over 100 µM and the TGI (A549 NSCLC) was over 100 µM. The TGI (ACHN renal) was over 100 µM, the TGI (BT-549 breast) was over 100 µM and the TGI (CAKI-1 renal) was over 100 µM. For the same compound, the TGI (CCRF-CEM leukemia) was 65.4 µM, the TGI (COLO 205 colon) was over 100 µM and the TGI (DU-145 prostate) was over 100 µM. The TGI (EKVX NSCLC) was over 100 µM, the TGI (HCT-116 colon) was over 100 µM and the TGI (HCT-15 colon) was over 100 µM. It also gave a TGI (HL-60(TB) leukemia) of over 100 µM, a TGI (HOP-62 NSCLC) of over 100 µM and a TGI (HS 578T breast) of over 100 µM. The TGI (HT29 colon) was over 100 µM, the TGI (IGROV1 ovarian) was over 100 µM and the TGI (K-562 leukemia) was over 100 µM. The TGI (KM12 colon) was over 100 µM, the TGI (LOX IMVI melanoma) was over 100 µM and the TGI (M14 melanoma) was over 100 µM. For the same compound, the TGI (MALME-3M melanoma) was 61 µM, the TGI (MCF7 breast) was over 100 µM and the TGI (MDA-MB-231 breast) was over 100 µM. The TGI (MDA-MB-435) was over 100 µM, the TGI (MDA-N) was over 100 µM and the TGI (MOLT-4 leukemia) was 79.3 µM. The TGI (NCI-H226 lung) was over 100 µM, the TGI (NCI-H23 lung) was over 100 µM and the TGI (NCI-H460 lung) was over 100 µM. It also gave a TGI (NCI-H522 lung) of 86.8 µM, a TGI (NCI/ADR-RES ovarian) of over 100 µM and a TGI (OVCAR-3 ovarian) of over 100 µM. The TGI (OVCAR-4 ovarian) was over 100 µM, the TGI (OVCAR-5 ovarian) was over 100 µM and the TGI (OVCAR-8 ovarian) was over 100 µM. It also gave a TGI (PC-3 prostate) of over 100 µM, a TGI (RPMI-8226 leukemia) of 43.6 µM and a TGI (RXF 393 renal) of over 100 µM. For the same compound, the TGI (SF-268 CNS) was over 100 µM, the TGI (SF-295 CNS) was over 100 µM and the TGI (SF-539 CNS) was over 100 µM. It also gave a TGI (SK-MEL-2 melanoma) of 63.3 µM, a TGI (SK-MEL-28 melanoma) of over 100 µM and a TGI (SK-MEL-5 melanoma) of over 100 µM. The TGI (SK-OV-3 ovarian) was over 100 µM, the TGI (SN12C renal) was over 100 µM and the TGI (SNB-19 CNS) was over 100 µM. It also gave a TGI (SNB-75 CNS) of over 100 µM, a TGI (SW-620 colon) of over 100 µM and a TGI (T-47D breast) of over 100 µM. The TGI (TK-10 renal) was over 100 µM, the TGI (U251 CNS) was over 100 µM and the TGI (UACC-257 melanoma) was over 100 µM. It also gave a TGI (UACC-62 melanoma) of over 100 µM and a TGI (UO-31 renal) of over 100 µM.
With `CCOP(=O)(OCC)C(F)(F)c1ccc(CC(NC(=O)OC(C)(C)C)C(=O)O)cc1` (centres undefined) the TGI (786-0 renal) was over 10 µM, the TGI (A498 renal) was over 10 µM and the TGI (A549 NSCLC) was over 10 µM. For the same compound, the TGI (ACHN renal) was over 10 µM, the TGI (BT-549 breast) was over 10 µM and the TGI (CAKI-1 renal) was over 10 µM. The TGI (CCRF-CEM leukemia) was over 10 µM, the TGI (COLO 205 colon) was over 10 µM and the TGI (DU-145 prostate) was over 10 µM. The TGI (EKVX NSCLC) was over 10 µM, the TGI (HCC-2998 colon) was over 10 µM and the TGI (HCT-116 colon) was over 10 µM. The TGI (HCT-15 colon) was over 10 µM, the TGI (HOP-62 NSCLC) was over 10 µM and the TGI (HOP-92 NSCLC) was over 10 µM. For the same compound, the TGI (HS 578T breast) was over 10 µM, the TGI (HT29 colon) was over 10 µM and the TGI (IGROV1 ovarian) was over 10 µM. For the same compound, the TGI (K-562 leukemia) was over 10 µM, the TGI (KM12 colon) was over 10 µM and the TGI (LOX IMVI melanoma) was over 10 µM. For the same compound, the TGI (M14 melanoma) was over 10 µM, the TGI (MALME-3M melanoma) was over 10 µM and the TGI (MCF7 breast) was over 10 µM. It also gave a TGI (MDA-MB-231 breast) of over 10 µM, a TGI (MDA-MB-435) of over 10 µM and a TGI (MDA-N) of over 10 µM. The TGI (MOLT-4 leukemia) was over 10 µM, the TGI (NCI-H226 lung) was over 10 µM and the TGI (NCI-H23 lung) was over 10 µM. It also gave a TGI (NCI-H460 lung) of over 10 µM, a TGI (NCI/ADR-RES ovarian) of over 10 µM and a TGI (OVCAR-3 ovarian) of over 10 µM. It also gave a TGI (OVCAR-4 ovarian) of over 10 µM, a TGI (OVCAR-5 ovarian) of over 10 µM and a TGI (OVCAR-8 ovarian) of over 10 µM. It also gave a TGI (PC-3 prostate) of over 10 µM, a TGI (SF-268 CNS) of over 10 µM and a TGI (SF-295 CNS) of over 10 µM. For the same compound, the TGI (SF-539 CNS) was over 10 µM, the TGI (SK-MEL-28 melanoma) was over 10 µM and the TGI (SK-MEL-5 melanoma) was over 10 µM. The TGI (SK-OV-3 ovarian) was over 10 µM, the TGI (SN12C renal) was over 10 µM and the TGI (SNB-19 CNS) was over 10 µM. The TGI (SNB-75 CNS) was over 10 µM, the TGI (SW-620 colon) was over 10 µM and the TGI (T-47D breast) was over 10 µM. The TGI (TK-10 renal) was over 10 µM, the TGI (U251 CNS) was over 10 µM and the TGI (UACC-257 melanoma) was over 10 µM. It also gave a TGI (UACC-62 melanoma) of over 10 µM and a TGI (UO-31 renal) of over 10 µM.
